Experimental data reported in patent publication US8389565B2, “Glycosidase inhibitors and methods of synthesizing same” (Simon Fraser University, priority 2000, dated 2013).
Structures can show the parent of a compound that is named as a salt. Where two headings read alike, the source gives them in different places.

What was measured:
[1] = molecular target: T1, Recombinant barley α-amylase isozyme 1 (AMY1) (Hordeum vulgare, UniProt P00693); experiment: Inhibition of barley α-amylase isozyme 1 activity towards DP17 amylose; format: biochemical
T1 construct: made in house
From the text: (§1) Porcine pancreatic α-amylase (PPA) and bovine serum albumin (BSA) were purchased from Sigma. Amylose EX-1 (DP17; average degree of polymerization 17) was purchased from Hayashibara Chemical Laboratories (Okayama, Japan). Recombinant barley α-amylase isozyme 1 (AMY1) was produced and purified as described.^23 An aliquot of the porcine pancreatic x-amylase (PPA) crystalline suspension (in ammonium sulfate) was dialyzed extensively against the assay buffer without BSA. The enzyme concentration was determined by aid of amino acid analysis as determined using an LKB model Alpha Plus amino acid analyzer. […] Six different final inhibitor concentrations were used in the range 1 μM-5 mM. The inhibitor was pre-incubated with enzyme for 5 min at 37° C. before addition of substrate.

[2] = molecular target: T2, Human Pancreatic α-Amylase (HPA) (Homo sapiens, UniProt P04746); experiment: Human pancreatic α-amylase assay, hydrolysis of 2,4-Dinitrophenyl maltotrioside; format: biochemical; settings: for Ki: n.a. = not active
T2 sequence (P04746 16-511): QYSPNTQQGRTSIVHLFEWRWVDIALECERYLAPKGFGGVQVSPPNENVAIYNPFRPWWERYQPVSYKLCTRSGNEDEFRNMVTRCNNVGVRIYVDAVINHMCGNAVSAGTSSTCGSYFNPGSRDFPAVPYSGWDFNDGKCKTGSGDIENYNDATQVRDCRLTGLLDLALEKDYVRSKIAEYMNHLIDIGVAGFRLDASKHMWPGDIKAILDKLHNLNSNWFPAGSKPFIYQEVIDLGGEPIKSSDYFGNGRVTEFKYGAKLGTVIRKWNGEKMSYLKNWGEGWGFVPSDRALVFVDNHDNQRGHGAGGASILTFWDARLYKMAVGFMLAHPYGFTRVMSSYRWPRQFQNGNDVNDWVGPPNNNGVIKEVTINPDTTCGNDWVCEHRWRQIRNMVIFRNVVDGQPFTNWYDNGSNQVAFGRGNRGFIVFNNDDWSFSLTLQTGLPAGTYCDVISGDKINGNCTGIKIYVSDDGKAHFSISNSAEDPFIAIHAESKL
Description: These assays were performed with purified enzyme. The ability of candidate inhibitors to inhibit the hydrolysis of 2,4-Dinitrophenyl maltotrioside was monitored by UV-visible spectroscopy of the released 2,4-dinitrophenol.

[3] = molecular target: T3, glucoamylase G2 form from Aspergillus niger (Aspergillus niger, UniProt P69328); experiment: Inhibition of glucoamylase G2-catalyzed hydrolysis of maltose; format: biochemical
T3 construct: purchased Novo Nordisk, Bagsvaerd, Denmark
Description: The glucoamylase G2 form from Aspergillus niger was purified from a commercial enzyme (Novo Nordisk, Bagsvaerd, Denmark) as described.^19,20 The initial rates of glucoamylase G2-catalyzed hydrolysis of maltose was tested with 1 mM maltose as substrate in 0.1 M sodium acetate pH 4.5 at 45° C. using an enzyme concentration of 7.0×10^−8 M and five inhibitor concentrations in the range 1 μm-5 mM. The effect of the inhibition on rates of substrate hydrolysis were compared for the different compounds.

[4] = molecular target: T4, porcine pancreatic α-amylase (PPA) (Sus scrofa, UniProt P00690); experiment: Inhibition of porcine pancreatic α-amylase activity towards DP17 amylose; format: biochemical
T4 construct: purchased Sigma
T4 sequence (P00690 16-511): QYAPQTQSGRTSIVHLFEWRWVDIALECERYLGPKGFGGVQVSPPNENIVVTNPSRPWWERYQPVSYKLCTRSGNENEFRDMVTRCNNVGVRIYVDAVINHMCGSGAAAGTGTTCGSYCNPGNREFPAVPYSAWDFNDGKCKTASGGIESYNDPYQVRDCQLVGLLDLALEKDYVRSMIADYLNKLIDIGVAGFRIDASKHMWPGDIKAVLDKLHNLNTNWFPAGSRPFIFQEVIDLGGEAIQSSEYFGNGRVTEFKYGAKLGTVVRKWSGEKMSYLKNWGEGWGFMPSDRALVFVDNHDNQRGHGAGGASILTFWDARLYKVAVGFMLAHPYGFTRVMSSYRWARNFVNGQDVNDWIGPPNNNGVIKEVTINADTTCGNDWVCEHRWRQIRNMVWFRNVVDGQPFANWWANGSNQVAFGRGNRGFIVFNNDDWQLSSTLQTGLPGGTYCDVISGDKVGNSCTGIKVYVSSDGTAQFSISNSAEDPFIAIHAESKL
From the text: as §1

[5] = molecular target: Maltase Glucoamylase (MGA) (Homo sapiens, UniProt O43451); experiment: MGA activity in extracts of COS cells transfected with MGA5′ (maltase subunit) construct, maltose hydrolysis, glucose oxidase colorimetric assay; format: biochemical; set-up: COS cells transfected with MGA5′ (maltase subunit clone 10) construct were used; expressed in transfected cells; host or cells: COS cells; settings: for Ki MGA (Human intestinal maltase glucoamylase): only the order of magnitude of activity (nM, μM, mM) or n.a. = not active
Description: In the assays, COS cells transfected with MGA5′ (maltase subunit clone 10) construct were used. Activity measurements were performed with cell extracts containing MGA. Maltose hydrolysis was monitored by measurement of the glucose released by a glucose oxidase colorimetric assay. Inhibition of this hydrolysis was measured as a reduction in OD reading.
In practice, an OD reading in the absence of the inhibitor was recorded, followed by a reading in the presence of the inhibitor. The percent reduction in OD reading upon administering a candidate inhibitor (see Table 11) was then correlated with a percent inhibition for a given concentration.

[6] = Stability on storage in aqueous solution; format: physicochemical
sucrase = settings: cited from earlier work
[7] = system: maltase activity in biopsies with live intestinal cells; experiment: Maltase activity in biopsies with live intestinal cells; format: cell-based, human; settings: 5 μM concentration
From the text: • 1) It appears that Acarbose acts principally by inhibiting human pancreatic α-amylase (HPA) and the breakdown of starch.

Sprague-Dawley rats = experiment: In vivo maltose gavage in catheterized rats: plasma glucose and insulin; set-up: species or system rat; settings: maltose gavage 1000 mg/kg with 25 mg/kg drug; for decrease of the 90 minute insulin AUC: versus Control
Description: Five week old Sprague-Dawley rats were housed singly under a 12:12-h light-dark photoperiod and given free access to water and rat chow (Purina rodent chow). After one week of acclimation, chronic indwelling catheters were implanted.
Animals were anesthetized with a combination of Ketamine-Xylazine-Butorphanol (0.1 ml/100 g im). Analgesic (Butorphenol, 1 mg/kg sc) was administered following recovery from anesthesia and the following morning. Antibiotic was administered by one dose sc and in the drinking water for 4 days post-operative (Baytril, 5 mg/kg sc, Bayer, Toronto, Canada; Baytril, 50 mg/ml: 0.36 ml solution in 250 ml drinking water). A sterile catheter (Intramedic PE-50 with ˜3 cm beveled Silastic tip) was placed in the left carotid artery and the distal end of the catheter was tunneled subcutaneously, exteriorized, and anchored at the nape of the neck. The catheters were protected from chewing by a stainless steel tether connected to a swivel system which allowed free movement of the animal and easy access to the catheter by the investigator.
The animals were allowed to recover for 1 week. Experiments were performed on conscious, unrestrained animals that had been fasted overnight by removal of chow from the cage hoppers at 2100. At 0800 the following morning animals were weighed and Atropine (0.05 mg/kg sc) was administered as a […]. At baseline, animals were administered a bolus of maltose by oral gavage (1000 mg/kg body weight) with or without drug (25 mg/kg body weight for all agents). Blood samples (0.1 mL) were taken via the implanted carotid line at -15 and -5 min for the baseline and at 7, 15, 30, 60, 90, 120, 210, 300 min.
Blood samples were kept on ice in microcentrifuge tubes and then were centrifuged. The plasma was stored at −20° C. until it was assayed. Plasma volume was triple replaced with heparinized saline (10u/mL), but red blood cells were not reinfused. Plasma glucose was assayed with the glucose oxidase method (Trinder RAICHEM Division of Hemagen Diagnostics, Inc. San Diego, Calif.). Plasma insulin concentrations were measured by rat insulin ELISA (Crystal Chem INC, Downers Grove, Ill.). Six experiments were performed for each treatment (control, Blintol, Acarbose, Salacinol).
All data are presented as means±SE. The significance of changes in plasma glucose and insulin were tested by two-way repeated-measures analysis of variance and were performed with the Statistical Analysis System for Windows (version 6.3, SAS Institute, Cary, N.C.). AUCs were compared using unpaired t-tests.

[8] = read-out: Ki AMY1 (Barley α-amylase)
[9] = read-out: Ki PPA (Porcine pancreatic α-amylase)

T1 sequence (P00693 25-438): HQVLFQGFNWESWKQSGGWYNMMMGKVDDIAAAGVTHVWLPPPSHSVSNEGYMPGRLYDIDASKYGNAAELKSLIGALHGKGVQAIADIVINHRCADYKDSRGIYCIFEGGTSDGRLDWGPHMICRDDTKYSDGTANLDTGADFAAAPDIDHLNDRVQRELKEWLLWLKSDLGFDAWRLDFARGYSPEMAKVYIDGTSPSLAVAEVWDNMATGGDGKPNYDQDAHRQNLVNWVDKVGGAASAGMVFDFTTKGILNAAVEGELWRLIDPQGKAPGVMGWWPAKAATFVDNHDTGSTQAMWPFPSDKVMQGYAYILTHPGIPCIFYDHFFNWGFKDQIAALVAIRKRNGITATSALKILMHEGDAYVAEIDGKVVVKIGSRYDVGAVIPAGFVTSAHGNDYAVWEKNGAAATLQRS
Maltase Glucoamylase (MGA), sequence (O43451 356-737 limits assumed): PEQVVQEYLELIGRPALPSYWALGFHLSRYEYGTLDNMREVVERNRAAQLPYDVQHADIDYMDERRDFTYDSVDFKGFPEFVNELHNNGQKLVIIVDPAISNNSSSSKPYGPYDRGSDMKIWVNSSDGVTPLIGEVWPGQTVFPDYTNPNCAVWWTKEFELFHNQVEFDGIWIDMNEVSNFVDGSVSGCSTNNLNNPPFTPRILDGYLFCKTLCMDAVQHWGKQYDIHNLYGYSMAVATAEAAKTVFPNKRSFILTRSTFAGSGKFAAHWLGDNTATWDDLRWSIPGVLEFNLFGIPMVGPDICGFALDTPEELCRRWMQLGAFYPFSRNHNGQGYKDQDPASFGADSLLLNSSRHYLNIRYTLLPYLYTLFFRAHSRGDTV
T3 sequence (P69328 other isoform, or with tags, fused parts or gaps): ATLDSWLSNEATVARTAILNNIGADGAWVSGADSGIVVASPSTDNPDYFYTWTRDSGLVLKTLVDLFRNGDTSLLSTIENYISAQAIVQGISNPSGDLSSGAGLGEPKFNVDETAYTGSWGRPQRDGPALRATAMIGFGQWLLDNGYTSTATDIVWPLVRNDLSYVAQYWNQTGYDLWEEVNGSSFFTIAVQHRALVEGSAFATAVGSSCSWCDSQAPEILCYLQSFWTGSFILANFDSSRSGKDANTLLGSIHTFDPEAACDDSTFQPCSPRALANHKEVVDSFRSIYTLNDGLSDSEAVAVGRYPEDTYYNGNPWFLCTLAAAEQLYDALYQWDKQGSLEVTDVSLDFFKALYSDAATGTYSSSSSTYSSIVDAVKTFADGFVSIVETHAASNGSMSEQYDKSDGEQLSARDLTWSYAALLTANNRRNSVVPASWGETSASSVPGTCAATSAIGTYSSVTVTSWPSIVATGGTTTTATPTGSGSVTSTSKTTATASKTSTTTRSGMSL

O=S(=O)([O-])O[C@@H](CO)[C@H](O)C[S@+]1C[C@@H](O)[C@H](O)[C@H]1CO
Ki [1, 8]: 15 µM | Ki [2]: 75 µM | Ki [3]: 1710 µM | Ki [4, 9]: 10 µM

O=S(=O)([O-])O[C@H](CO)[C@@H](O)C[S@+]1C[C@@H](O)[C@H](O)[C@@H](O)C1
Ki [2]: > 5000 µM | Ki MGA (Human intestinal maltase glucoamylase) [5]: mM

O=S(=O)(O)O[C@H](CO)[C@@H](O)CN1C[C@H](O)[C@@H](O)[C@@H]1CO
Ki [1, 8]: > 5000 µM | Ki [2]: 400 µM | Ki ([3]; read-out: Ki GA (Glucoamylase)): > 8000 µM | Ki [4, 9]: > 5000 µM

O=S(=O)([O-])O[C@H]1[C@H](O)C(O)O[C@@H]1C[S@+]1C[C@@H](O)[C@H](O)[C@H]1CO (stereo partly drawn) [Compound 101, 3-O-sulfoxy-5-deoxy-5-[1,4-dideoxy-1,4-episufoniumylidene-D-arabinitol]-α/β-D-arabinose inner salt]
stability on storage in aqueous solution ([6]; aqueous solution, several days at ambient temperature): unchanged

O=S(=O)([O-])O[C@H](CO)[C@@H](O)C[Se+]1C[C@@H](O)[C@H](O)[C@@H](O)C1 (some centres unmarked)
Ki [2]: > 5000 µM

O=S(=O)(O)O[C@H](CO)[C@@H](O)CN1C[C@H](O)[C@@H](O)[C@H](O)[C@H]1CO [Compound 67b, 1,5-Dideoxy-1,5-[[N-(2R,RS)-2,4-dihydroxy-3-(sulfooxy)-butyl]iminoonium]-D-glucitol]
stability of the 3′-sulfate ester on storage ([6]; D2O/NaOD at pH>10, 2 days at ambient temperature): completely hydrolyzed

O=S(=O)([O-])O[C@@H]([C@H](O)[C@H](O)[C@@H](O)CO)[C@H](O)C[S+]1C[C@@H](O)[C@H](O)[C@H]1CO (some centres unmarked) [Kotalanol]
inhibitory activity against sucrase (in words) (sucrase): more potent inhibitory activity against sucrase than Salicinol and Acarbose

O=S(=O)([O-])O[C@@H](CO)[C@H](O)C[Se@+]1C[C@@H](O)[C@H](O)[C@H]1CO
Ki [1]: > 5000 µM | Ki [2]: > 5000 µM | Ki MGA (Human intestinal maltase glucoamylase) [5]: nM | Ki [4]: > 5000 µM

O=S(=O)([O-])OC(CO)C(O)C[Se+]1CC(O)C(O)C1CO [Blintol, 1,4-Dideoxy-1,4-[[(2S,3S)-2,4-dihydroxy-3-(sulfooxy)butyl]episelenoniumylidene]-D-arabinitol Inner Salt]
percent inhibition of maltase activity [7]: 50% | time at which insulin values were different from basal (Sprague-Dawley rats): 15 min | time at which plasma glucose returned to basal (Sprague-Dawley rats): 60 min | 15 minute glucose excursion from basal (Sprague-Dawley rats; mean ± SE, n=6): 29.3 ± 6.5 mg/dL | decrease of the 90 minute insulin AUC (Sprague-Dawley rats): 53% | IC50 [5]: 0.2 µM

O=S(=O)([O-])O[C@H](CO)[C@@H](O)C[S@@+]1C[C@@H](O)[C@H](O)[C@@H](O)C1
Ki [2]: > 5000 µM

O=S(=O)([O-])OC(CO)C(O)C[S+]1CC(O)C(O)C1CO [Salacinol, 1,4-Dideoxy-1,4-[[(2S,3S)-2,4-dihydroxy-3-(sulfooxy)butyl]-episulfoniumylidene]-D-arabinitol Inner Salt, reference compound]
percent inhibition of maltase activity [7]: 13% | Ki ([1]; amylose DP17, pH 5.5, 37° C., read-out: Ki value, AMY1): 15 ± 1 µM | plasma glucose profile (in words) (Sprague-Dawley rats): significantly lower post-prandial plasma glucose | plasma insulin profile (in words) (Sprague-Dawley rats): significantly lower post-prandial plasma glucose and insulin concentrations | time at which insulin values were different from basal (Sprague-Dawley rats): 15 min | time at which plasma glucose returned to basal (Sprague-Dawley rats): 60 min | glucose Area Under the Curve, 0-90 minutes (in words) (Sprague-Dawley rats; excursion above basal): slightly lower 90 minute AUC's than Acarbose | decrease of the 90 minute insulin AUC (Sprague-Dawley rats): 65% | inhibition of HPA (in words) [2]: inhibits both HPA and MGA | Ki [3]: 1700 µM | inhibition of MGA (in words) [5]: inhibits both HPA and MGA | inhibition at 5 µM ([5]; read-out: percent inhibition of the breakdown of maltose): 60% | Ki ([4]; amylose DP17, pH 6.9, 37° C., read-out: Ki value, PPA): 10 ± 2 µM
